This note sets out measurements from PubChem BioAssay (NCI).

Molecules are shown by their SMILES.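 Dose response: 5 concentrations. Exposure: 48 h. Format: 96-well plates. Endpoint: linear interpolation; highest concentration if not reached. TGI is the concentration that stops growth completely.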 Where only a bound is given, the exact number is not on record here.

Test systems include SW-620 colon; T-47D breast; TK-10 renal; HOP-62 NSCLC; M14 melanoma; SF-295 CNS; SN12C renal.
Holding throughout (assay): NCI-60 cell line screen, 48 h

As to `COC(=O)NC(=O)NC(Cc1ccccc1)NC(=O)OCc1ccccc1` (stereo unspecified), the TGI in the assay with SW-620 colon, in the assay with T-47D breast, in the assay with TK-10 renal, in the assay on HOP-62 NSCLC, in the assay on M14 melanoma and in the assay with SF-295 CNS was more than 100 µM throughout. The TGI with SN12C renal is more than 100 µM.

As to `Clc1ccc(OCC2NC3CCC2CC3)cn1` (stereo unspecified), the TGI in the assay on SW-620 colon was 57.1 µM; with T-47D breast, more than 100 µM; with TK-10 renal, more than 100 µM; in the assay with HOP-62 NSCLC, 67.1 µM; in the assay on M14 melanoma it was 36.5 µM; in the assay with SF-295 CNS, 68.8 µM. Besides, the TGI with SN12C renal worked out at 96.6 µM.

Regarding `O=C1Cc2c(-c3cccs3)cc(-c3ccccc3)nc2-c2ccccc2N1`, the TGI in the assay on SW-620 colon, in the assay on T-47D breast, in the assay on TK-10 renal, with HOP-62 NSCLC, in the assay with M14 melanoma and in the assay on SF-295 CNS was more than 100 µM in each case. The compound further had a TGI in the assay with SN12C renal of more than 100 µM.

As for `COc1cc(CN=c2nc(N(C)C)ss2)cc(OC)c1OC`, the TGI in the assay with SW-620 colon, in the assay on T-47D breast, in the assay with TK-10 renal, with HOP-62 NSCLC, in the assay on M14 melanoma and in the assay on SF-295 CNS was more than 10 µM each time. For the same compound, in the assay on SN12C renal, the TGI was more than 10 µM.

Regarding `Cc1ccc(S(=O)(=O)NNC(=O)Nc2cccc(C(F)(F)F)c2)cc1`, the TGI with SW-620 colon, with T-47D breast, in the assay with TK-10 renal, with HOP-62 NSCLC, in the assay on M14 melanoma and in the assay on SF-295 CNS was more than 100 µM each time. This compound returned a TGI with SN12C renal of more than 100 µM.

With `CN(C)c1cccc(-c2cc(=S)c3cc4c(cc3[nH]2)OCO4)c1`, the TGI with SW-620 colon, in the assay on T-47D breast, in the assay with TK-10 renal, in the assay with HOP-62 NSCLC, in the assay on M14 melanoma and with SF-295 CNS was more than 100 µM in each case. This compound gave a TGI in the assay on SN12C renal of more than 100 µM.

Take `Clc1ccc(Cc2nc3ccccc3o2)cc1`: the TGI in the assay on SW-620 colon, in the assay with T-47D breast, in the assay on TK-10 renal, in the assay with HOP-62 NSCLC, in the assay on M14 melanoma and with SF-295 CNS was more than 100 µM in each case. This compound also yielded a TGI in the assay with SN12C renal of more than 100 µM.

As to `O=C1CSC(c2c[nH]c3ccccc23)N1c1cccc(Cl)c1` (stereo unspecified), the TGI with SW-620 colon, in the assay with T-47D breast, in the assay on TK-10 renal, in the assay on HOP-62 NSCLC, with M14 melanoma and in the assay on SF-295 CNS was more than 100 µM in each case. The TGI in the assay with SN12C renal was more than 100 µM.

Take `COC1=C(C(c2cc(OC)c(OC)c(OC)c2)c2cc3c(cc2OC)OCO3)C(=O)OC1` (stereo unspecified): the TGI with SW-620 colon was more than 100 µM; with T-47D breast, more than 100 µM; in the assay on TK-10 renal it was more than 73.2 µM; in the assay with HOP-62 NSCLC, more than 84 µM; in the assay on M14 melanoma, 63.6 µM; in the assay with SF-295 CNS it was 51.4 µM. Moreover, the TGI in the assay with SN12C renal is more than 100 µM.

`CSC(=S)CC(O)[C@@H]1CC2c3ccccc3C1c1ccccc12` (stereo partly specified): the TGI was more than 100 µM with SW-620 colon; 37.7 µM with T-47D breast; 30.7 µM in the assay on TK-10 renal; 38.2 µM with HOP-62 NSCLC; 27 µM in the assay on M14 melanoma; 34.4 µM with SF-295 CNS. In the assay on SN12C renal, this compound showed a TGI of 45.2 µM.

Turning to `CCC(C)N1CN(c2ccccc2)C2(CCN(CC3COc4ccccc4O3)CC2)C1=O` (stereo unspecified), the TGI in the assay on SW-620 colon stood at 58.8 µM; in the assay with T-47D breast, 51.3 µM; in the assay on TK-10 renal it was 86.2 µM; in the assay with HOP-62 NSCLC it was 41.7 µM; in the assay on M14 melanoma it was 46.3 µM; in the assay with SF-295 CNS, 39.1 µM. The compound further had a TGI in the assay on SN12C renal of 84.2 µM.

As for `CCCN(CCC)C(=S)Sc1nc(C)nc(N2CCN(c3nc(C)nc(SC(=S)N(CCC)CCC)c3[N+](=O)[O-])CC2)c1[N+](=O)[O-]`, the TGI in the assay with SW-620 colon is 17.1 µM; with T-47D breast, 39.9 µM; in the assay on TK-10 renal it was 41.9 µM; with HOP-62 NSCLC, more than 85 µM; with M14 melanoma, 60.9 µM; in the assay with SF-295 CNS, more than 58.1 µM. The TGI in the assay with SN12C renal was more than 39.8 µM.

Take `CCNC1=C(NC(=O)c2ccc(F)cc2)C(=O)c2ccccc2C1=O`: the TGI with SW-620 colon is more than 100 µM; in the assay on T-47D breast, more than 100 µM; in the assay on TK-10 renal it was more than 100 µM; with HOP-62 NSCLC, more than 100 µM; in the assay with M14 melanoma, 63.5 µM; in the assay on SF-295 CNS, more than 100 µM. For the same compound, in the assay on SN12C renal, the TGI is more than 100 µM.

`CC(C)=CCC[C@@H](C)[C@H]1CC[C@@]2(C)[C@@H]3CC[C@H]4C(C)(C)[C@@H](O)CC[C@@]45C[C@@]35CC[C@]12C`: the TGI in the assay with SW-620 colon was more than 100 µM; in the assay with T-47D breast, more than 100 µM; with TK-10 renal it was more than 100 µM; in the assay on HOP-62 NSCLC, 59.6 µM; in the assay on M14 melanoma, more than 85.1 µM; in the assay with SF-295 CNS, more than 78.7 µM. For the same compound, in the assay with SN12C renal, the TGI is 41.8 µM.

For the compound `CCCCCCCCCCCCCCCCOCC(COP(=O)(O)OCC1OC(n2cc(CC)c(=O)[nH]c2=O)CC1O)OC(=O)CCCCCCCCCCCCCCC` (stereo unspecified), the TGI in the assay on SW-620 colon, in the assay on T-47D breast, with TK-10 renal, in the assay with HOP-62 NSCLC, in the assay with M14 melanoma and in the assay on SF-295 CNS was more than 100 µM each time. The compound also had a TGI in the assay on SN12C renal of more than 100 µM.

On to `CC(C)(C)N(Cc1ccccc1)C(=O)/C=C\S(=O)c1ccccc1` (stereo unspecified), for which the TGI in the assay on SW-620 colon is 9.13 µM; in the assay with T-47D breast it was 22.2 µM; in the assay with TK-10 renal, 18.5 µM; in the assay with HOP-62 NSCLC it was 21.2 µM; in the assay with M14 melanoma it was 8.91 µM; in the assay with SF-295 CNS, 27.3 µM. Besides, the TGI in the assay on SN12C renal worked out at 8.66 µM.

On to `Cc1cn2cc(-c3cccs3)nc2s1`, for which the TGI in the assay with SW-620 colon, in the assay with T-47D breast, in the assay on TK-10 renal, in the assay with HOP-62 NSCLC, with M14 melanoma and with SF-295 CNS was more than 100 µM throughout. This compound gave a TGI in the assay with SN12C renal of more than 100 µM.

Regarding `COc1cccc(OC)c1C1ON=C(c2ccccc2)N1C12CC3CC(CC(C3)C1)C2` (stereo unspecified), the TGI with SW-620 colon, in the assay with T-47D breast, with TK-10 renal, in the assay with HOP-62 NSCLC, in the assay with M14 melanoma and in the assay on SF-295 CNS was more than 100 µM in each case. The compound further returned a TGI with SN12C renal of more than 100 µM.
